From PubChem BioAssay (NCI)
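1) Cells in 96-well plates. 2) Compound, 48 h, 5 concentrations. 3) Linear interpolation between surrounding doses. 4) Unreached endpoint = highest concentration. TGI denotes the concentration required for complete inhibition of growth.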

Assays:
Test in all cases: inhibition of tumour cell growth, NCI panel, 48 h
NCI-H23 lung = tested on: NCI-H23 lung
MOLT-4 leukemia = tested on: MOLT-4 leukemia
SW-620 colon = tested on: SW-620 colon
SR leukemia = tested on: SR leukemia
HOP-62 NSCLC = tested on: HOP-62 NSCLC
OVCAR-8 ovarian = tested on: OVCAR-8 ovarian
HOP-92 NSCLC = tested on: HOP-92 NSCLC
MDA-MB-231 breast = tested on: MDA-MB-231 breast
DU-145 prostate = tested on: DU-145 prostate
UACC-257 melanoma = tested on: UACC-257 melanoma

| SMILES | TGI (NCI-H23 lung) | TGI (MOLT-4 leukemia) | TGI (SW-620 colon) | TGI (SR leukemia) | TGI (HOP-62 NSCLC) | TGI (OVCAR-8 ovarian) | TGI (HOP-92 NSCLC) | TGI (MDA-MB-231 breast) | TGI (DU-145 prostate) | TGI (UACC-257 melanoma) |
| --- | --- | --- | --- | --- | --- | --- | --- | --- | --- | --- |
| Nc1[nH]nc2nc3ccc(C(F)(F)F)cc3nc12 | 57.2 µM | > 100 µM | 33.4 µM | > 100 µM | 58.8 µM | 46 µM | 78 µM | > 100 µM | 36.8 µM | 45.4 µM |
| CC(=O)O[C@H]1CC[C@@]2(C)C(=CC[C@H]3[C@@H]4C[C@H](N5CCOCC5)[C@H](OC(C)=O)[C@@]4(C)CC[C@@H]32)C1 | > 100 µM | > 100 µM | > 100 µM | > 100 µM | > 100 µM | > 100 µM | > 100 µM | > 100 µM | > 100 µM | > 100 µM |
| CCOC(=O)C1C2CCC1CC(=NNc1ccc([N+](=O)[O-])cc1[N+](=O)[O-])C2 (stereo not given) | > 50 µM | > 50 µM | > 50 µM | > 50 µM | > 50 µM | > 50 µM | 48.7 µM | > 50 µM | > 50 µM | > 50 µM |
| Cc1ccc2c(c1)C(=O)C1(C2)Cc2cccc(C)c2C1=O (stereo not given) | > 100 µM | > 100 µM | > 100 µM | > 100 µM | > 100 µM | > 100 µM | > 100 µM | > 100 µM | > 100 µM | > 100 µM |
| CCOC(=O)NC(Nc1ccc([N+](=O)[O-])cc1)(C(F)(F)F)C(F)(F)F | > 100 µM | > 100 µM | > 100 µM | > 100 µM | > 100 µM | > 100 µM | > 100 µM | > 100 µM | > 100 µM | > 100 µM |
| C[N+]12CCCCC1C(CN1C(=O)Cc3c4ccccc4c(c4ccccc34)CC1=O)CCC2 (stereo not given) | > 100 µM | > 100 µM | > 100 µM | > 100 µM | > 100 µM | > 100 µM | > 100 µM | > 100 µM | > 100 µM | > 100 µM |
| C=C1C(=O)C=C[C@]2(C)CC[C@H]3C(=C)C(=O)O[C@@H]3[C@@H]12 | 9.61 µM | 3.52 µM | 5.34 µM | 6.11 µM | 6.36 µM | 17.2 µM | 7.62 µM | 11.7 µM | 5.13 µM | 10.5 µM |
| CCOC(=O)NC(Nc1cccc(C(F)(F)F)c1)(C(F)(F)F)C(F)(F)F | > 100 µM | > 100 µM | > 100 µM | > 100 µM | > 100 µM | > 100 µM | > 100 µM | > 100 µM | > 100 µM | > 100 µM |
| COc1ccc2cc(C(C)C(=O)N3CCOC3=O)ccc2c1 (stereo not given) | > 100 µM | > 100 µM | > 100 µM | > 100 µM | > 100 µM | > 100 µM | > 100 µM | > 100 µM | > 100 µM | > 100 µM |
| NC(CCC(=O)NC(CSCC1C(=O)Nc2ccccc21)C(=O)NCC(=O)O)C(=O)O (stereo not given) | 11.3 µM | 12.8 µM | 10.7 µM | 2.51 µM | 38.6 µM | 13.4 µM | 9.55 µM | 18.9 µM | 12.9 µM | 19.5 µM |
| CC1=C(CO)C(=O)O[C@@H]([C@@H](CO)[C@H]2CCC3C4C[C@@H](O)[C@@]5(O)CC=CC(=O)[C@]5(C)C4CC[C@@]32C)C1 (stereo not given in full) | > 100 µM | > 100 µM | > 100 µM | > 100 µM | > 100 µM | > 100 µM | > 100 µM | > 100 µM | > 100 µM | > 100 µM |
| CN1[C@@H]2C[C@@H](OC(=O)[C@H](CO)c3ccccc3)C[C@H]1[C@@H]1O[C@@H]12 | > 100 µM | > 100 µM | > 100 µM | > 100 µM | > 100 µM | > 100 µM | > 100 µM | > 100 µM | > 100 µM | > 100 µM |
| C=CCOc1ccc(C2(O)c3ccccc3C3=NCCCN32)cc1 (stereo not given) | > 100 µM | > 100 µM | > 100 µM | > 78.8 µM | > 100 µM | > 100 µM | > 100 µM | > 100 µM | > 100 µM | 52.7 µM |
| O=C1c2ccccc2C2(c3ccc(Cl)cc3)N[C@H]3CCCC[C@@H]3N12 (stereo not given in full) | > 100 µM | > 100 µM | > 100 µM | > 100 µM | > 100 µM | > 100 µM | > 100 µM | > 100 µM | > 100 µM | > 100 µM |
| O=C1c2cccnc2-c2nccc3c2c1nc1cc(Br)ccc13 | 0.313 µM | 0.854 µM | 0.162 µM | 0.0617 µM | 0.362 µM | 0.388 µM | 2.02 µM | 0.876 µM | 0.421 µM | 0.837 µM |
| O=C1/C(=C/c2ccc(Cl)cc2)CSc2ccccc21 | 45.1 µM | > 100 µM | > 100 µM | > 100 µM | 63.9 µM | > 100 µM | 90.3 µM | 55.9 µM | > 100 µM | 37.4 µM |
